Measured values: patent publication US5968932A, “Method of inhibiting sleep apnea” (Gruenenthal GmbH, priority 1998, dated 1999)

What was measured:
[1] = tested on: bulldog with moderately severe obstructive sleep apnea; experiment: Dose study in one bulldog with moderately severe obstructive sleep apnea, Example 2; assay type: in vivo; settings: for non-REM sleep RDI (respiratory disturbance incidents): saline control 6; for Arousal index: saline control 12; for REM sleep RDI (respiratory disturbance incidents): saline control 44; for Lowest O2 saturation: saline control 89; for Mean sleep efficiency: six hours, saline control 39%
Procedure: In a further experiment, Montirelin was administered on different days at varying dosage levels to one bulldog with moderately severe obstructive sleep apnea. In this bulldog, a double-blind study was conducted in which saline was administered as a control and four different doses of Montirelin (100 mg/kg, 200 mg/kg, 400 mg/kg and 800 mg/kg) were administered. The dog was studied on four different days at each dose of the active compound. […] The order of different doses of drug or saline control was randomized, and a wash-out period of two days was allowed after study of a particular dose. During the studies, respiratory movement, oxygen saturation and electroencephalogram for sleep state were measured. The number of sleep-disordered breathing events or respiratory disturbance incidents (RDI) per hour was calculated according to the formula given above both for non-rapid eye movement (non-REM) sleep, which occupies the majority of sleep time, and rapid eye movement (REM) sleep. Mean sleep efficiency and arousal index were also determined.

central nervous system = settings: known compound, background statement; cited from earlier work
[2] = tested on: standard English bulldog test model; experiment: English bulldog test model of obstructive sleep apnea (hypersomnolence and sleep disordered breathing), Example 1; assay type: in vivo; settings: 100 μg/kg i.v.; for Sleep disordered breathing index (SDBI): REM events per REM time/60 min; for Total sleep time (TST): eight hour observation
Procedure: Five bulldogs were implanted with subcutaneous electroencephalogram (EEG) electrodes and instrumented with respiratory oscillation belts (Respitrace™) to measure abdominal and ribcage movements and with an ear oximeter to measure oxygen saturation (SaO2). […] Montirelin in a sterile saline vehicle was administered intravenously to the test animals at a dosage of 100 μg/kg. Each test with active substance was preceded by a control day in which only the saline vehicle was administered. The effect of Montirelin on hypersomnolence and sleep disordered breathing was assessed.
Hypersomnolence was determined by sleep latency and total sleep time. Total sleep time (TST) is expressed as a percentage calculated by dividing the total sleep time in minutes by the total study time in minutes and multiplying the resulting quotient by 100 according to the formula: [formula]
Sleep latency was defined as the total minutes until the onset of non-REM sleep.
Sleep disordered breathing was evaluated in terms of a sleep disordered breathing index (SDBI) defined as the total number of rapid eye movement (REM) events divided by a quantity equal to the total REM time divided by 60 minutes according to the formula: [formula] A REM event (apnea) is defined as an incident of decreased or absent respiration and a decrease of 4% or more in the saturated blood oxygen (SaO2) level occurring during REM sleep.

Sprague-Dawley rats = experiment: Subacute repeated-dose (five weeks) intravenous toxicity with four-week recovery study in rats; assay type: in vivo, Sprague-Dawley rats (SPF Slc:SD)
Procedure: The subacute repeated-dose intravenous toxicity of Montirelin was investigated in Sprague-Dawley rats treated repeatedly at 0.05, 0.5,5 and 50 mg/kg/day for five weeks, and the reversibility of its toxic effects was also investigated by a four-week recovery study.
[…] SPF Slc:SD rats of both sexes (age: four weeks, body weight: 70.0-81.6 g) were purchased from Shizuoka Agriculture Cooperative Association for Laboratory Animals. During a one-week quarantine/acclimation period, the animals were measured for body weight and observed for any general symptoms, and healthy animals showing normal growth were selected and used in the experiment at the age of five weeks.
Males and females were used in five groups (including the control group) of 10 animals/sex, and additional 10 animals/sex were added to the control, 0.5 mg/kg and 50 mg/kg groups to investigate the reversibility of the toxic effect of the test substance. All these animals were randomized to each group by weight stratification so that the differences in initial mean body weight were within 2% between groups. At the start of the treatment, the body weight was 116.5-132.9 g for males and 107.0-123.4 g for females.
The maximal dose was set at […] lower doses were set at 5, 0.5 and 0.05 mg/kg using a common ratio of 1/10. This study also included the vehicle control group.
Dosing solutions were prepared by dissolving a weighed amount of the test substance in physiological saline at a concentration of 1 W/V % using a volumetric flask. Lower dosing solutions were obtained by successive 10-fold dilution of the initial solution. The respective dosing solution was repeatedly administered intravenously once daily for 35 days into the tail vein at a rate of 0.2 ml/10 sec. using a 1/4 syringe for injection. The treatment was given at a constant volume of 0.5 ml/100 g body weight in all dose groups, and the control group was treated with physiological saline at the same volume in the same manner.
Clinical signs in all animals were observed daily between two and four hours after dosing according to Irwin's method of comprehensive observational assessment, and the type, severity, onset time and disappearance time of toxic symptoms were recorded. During the recovery period, the clinical observation was performed once daily in the morning in the same manner. The body weight, food consumption and water consumption were measured in all animals three times weekly in the morning throughout the treatment and recovery periods and recorded.

C[C@H]1SC[C@@H](C(=O)N[C@@H](Cc2c[nH]cn2)C(=O)N2CCC[C@H]2C(N)=O)NC1=O.O.O.O.O [Montirelin, (3R, 6R) -N-[(6-methyl-5-oxo-3-thiomorpholinyl)carbonyl]-L-histidyl-L-prolinamide tetrahydrate]
non-REM sleep RDI (respiratory disturbance incidents) ([1]; 100 mg/kg i.v.): 8 per hour
Arousal index ([1]; 100 mg/kg i.v.): 16
REM sleep RDI (respiratory disturbance incidents) ([1]; 100 mg/kg i.v.): 53 per hour
Lowest O2 saturation ([1]; 100 mg/kg i.v.): 92
Mean sleep efficiency ([1]; 100 mg/kg i.v.): 41%
non-REM sleep-disordered breathing events, result in words ([1]; 200 mg/kg and above, i.v.): significant reduction in non-REM sleep-disordered breathing events
non-REM sleep RDI (respiratory disturbance incidents) ([1]; 200 mg/kg i.v., p < 0.05): 0 per hour
Arousal index ([1]; 200 mg/kg i.v.): 7
REM sleep RDI (respiratory disturbance incidents) ([1]; 200 mg/kg i.v.): 70 per hour
Lowest O2 saturation ([1]; 200 mg/kg i.v.): 86
Mean sleep efficiency ([1]; 200 mg/kg i.v.): 37%
REM sleep occurrence, result in words ([1]; 400 mg/kg and 800 mg/kg, i.v.): the animal did not enter REM sleep
non-REM sleep RDI (respiratory disturbance incidents) ([1]; 400 mg/kg i.v.): 4 per hour
Arousal index ([1]; 400 mg/kg i.v.): 12
Lowest O2 saturation ([1]; 400 mg/kg i.v.): 92
Mean sleep efficiency ([1]; 400 mg/kg i.v.): 40%
non-REM sleep RDI (respiratory disturbance incidents) ([1]; 800 mg/kg i.v., p < 0.05): 2 per hour
Arousal index ([1]; 800 mg/kg i.v., p < 0.05): 6
Lowest O2 saturation ([1]; 800 mg/kg i.v.): 93
Mean sleep efficiency ([1]; 800 mg/kg i.v.): 38%
Dose dependence of non-REM breathing-decline episodes, result in words ([1]; 100 to 800 mg/kg i.v.): dose-dependent reduction in the number of episodes where breathing declines during non-REM sleep
Number of arousals per hour, result in words ([1]; i.v., versus saline): did reduce the number of arousals per hour
Oxyhemoglobin saturation during breathing episodes, result in words ([1]; i.v., versus saline): no effect on oxyhemoglobin saturation during breathing episodes
Sleep efficiency, result in words ([1]; i.v., versus saline): did not affect sleep efficiency
REM sleep RDI, result in words ([1]; lower dose levels, i.v.): there does not appear to have been an impact on REM sleep RDI
Central nervous system effect (central nervous system): exhibits central nervous system stimulating effects
Awakening / sleep pattern, result in words ([2]; versus saline control): awaken less frequently and thus exhibit markedly better consolidated sleep patterns
Reduction in sleep disordered breathing ([2]; versus saline control): approximately 50%
Sleep depth, result in words ([2]; versus saline control): sleep may be somewhat shallower
Total sleep time, result in words ([2]; versus saline control): only a slight reduction in total sleep time
Sleep disordered breathing index (SDBI), average ([2]; Average of 5 dogs, saline control 15.9 ± 11): 8.7 ± 10
Total sleep time (TST), average ([2]; Average of 5 dogs, saline control 20.9 ± 8.3): 16.4 ± 8.5%
Sleep latency, average ([2]; Average of 5 dogs, saline control 91.4 ± 14): 142 ± 61.4 min
Sleep latency (minutes until onset of non-REM sleep) ([2]; Test dog 1): 47 min
Sleep disordered breathing index (SDBI) ([2]; Test dog 1): 7.2
Total sleep time (TST) ([2]; Test dog 1): 18.5%
Sleep latency (minutes until onset of non-REM sleep) ([2]; Test dog 2): 149 min
Sleep disordered breathing index (SDBI) ([2]; Test dog 2): 8.2
Total sleep time (TST) ([2]; Test dog 2): 17.0%
Sleep latency (minutes until onset of non-REM sleep) ([2]; Test dog 3): 145 min
Sleep disordered breathing index (SDBI) ([2]; Test dog 3): 2.6
Total sleep time (TST) ([2]; Test dog 3): 26.7%
Sleep latency (minutes until onset of non-REM sleep) ([2]; Test dog 4): 150 min
Sleep disordered breathing index (SDBI) ([2]; Test dog 4): 0.0
Total sleep time (TST) ([2]; Test dog 4): 17.0%
Sleep latency (minutes until onset of non-REM sleep) ([2]; Test dog 5): 219 min
Sleep disordered breathing index (SDBI) ([2]; Test dog 5): 25.7
Total sleep time (TST) ([2]; Test dog 5): 3.0%
Water consumption (Sprague-Dawley rats; 5 mg/kg/day or above i.v., from day 2-3 until about week 4): increased in both sexes
Day by which polyuria disappeared (Sprague-Dawley rats; 5 mg/kg/day or higher i.v.): 4 to 28 days
Time of polyuria peak (Sprague-Dawley rats; 5 mg/kg/day or higher i.v., from day 0-3): peaked at about one hour after dosing
Transient polyuria (Sprague-Dawley rats; 5 mg/kg/day or higher i.v., males and females): almost all males and females showed transient polyuria
Mortality (Sprague-Dawley rats; 0.05, 0.5, 5 and 50 mg/kg/day i.v., administration and recovery periods): no death occurred
Hematological changes relative to normal range (Sprague-Dawley rats; 50 mg/kg/day i.v., both sexes): within the range of normal physiological variations
Red blood cell count, hemoglobin and hematocrit (Sprague-Dawley rats; 50 mg/kg/day i.v., both sexes): increasing tendency in red blood cell count, hemoglobin and hematocrit
Total white blood cell count (Sprague-Dawley rats; 50 mg/kg/day i.v., both sexes): decreasing tendency in total white blood cell count
Systemic tremor (Sprague-Dawley rats; 50 mg/kg/day i.v., both sexes, from day 0): systemic tremor was observed transiently during the injection in both sexes
Day by which systemic tremor disappeared (Sprague-Dawley rats; 50 mg/kg/day i.v., females): ≤ 4 days
Day by which systemic tremor disappeared (Sprague-Dawley rats; 50 mg/kg/day i.v., males): ≤ 6 days
Reversibility of observed changes (Sprague-Dawley rats; after discontinuing administration, four-week recovery): All observed changes were reversed by discontinuing administration
Incidence of hypertrophy of serous cells in the submaxillary gland (histopathology) (Sprague-Dawley rats; both sexes, all treatment groups, i.v.): showed dose-dependency in both sexes of all treatment groups
Food consumption and body weight changes (Sprague-Dawley rats; females, i.v.): unremarkable
Blood biochemical parameters (Sprague-Dawley rats; i.v.): No treatment-related abnormalities were observed
Gross changes at autopsy (Sprague-Dawley rats; i.v.): no treatment-related grossly abnormal changes
Histopathology of other organs (light microscopy) (Sprague-Dawley rats; i.v.): no remarkable changes were shown at the light microscopic level
Liver and kidney electron microscopical examination (Sprague-Dawley rats; i.v.): nor were there any abnormal changes in the liver or kidney
Other hematological parameters (Sprague-Dawley rats; i.v.): not related to the dose
Urinary findings (other than urine volume) (Sprague-Dawley rats; i.v.): unremarkable
Other clinical signs (Sprague-Dawley rats; i.v., administration and recovery periods): no other remarkable clinical signs
Urine volume (Sprague-Dawley rats; males and females, 5 mg/kg/day or above i.v., week 2 and 5): increase in urine volume
Body weight gain (Sprague-Dawley rats; males, particularly 0.5, 5 and 50 mg/kg/day i.v.): body weight gain was suppressed in males
Food consumption (Sprague-Dawley rats; treated males, versus control males, i.v.): tended to decrease food consumption
